Data set [1] deals with T1, Sodium channel protein type 9 subunit alpha (Homo sapiens, UniProt Q15858). Nature of the data set: Blockade of human Nav1.7 by voltage ion probe reader based FRET assay.
Target sequence in this assay (Q15858 whole entry): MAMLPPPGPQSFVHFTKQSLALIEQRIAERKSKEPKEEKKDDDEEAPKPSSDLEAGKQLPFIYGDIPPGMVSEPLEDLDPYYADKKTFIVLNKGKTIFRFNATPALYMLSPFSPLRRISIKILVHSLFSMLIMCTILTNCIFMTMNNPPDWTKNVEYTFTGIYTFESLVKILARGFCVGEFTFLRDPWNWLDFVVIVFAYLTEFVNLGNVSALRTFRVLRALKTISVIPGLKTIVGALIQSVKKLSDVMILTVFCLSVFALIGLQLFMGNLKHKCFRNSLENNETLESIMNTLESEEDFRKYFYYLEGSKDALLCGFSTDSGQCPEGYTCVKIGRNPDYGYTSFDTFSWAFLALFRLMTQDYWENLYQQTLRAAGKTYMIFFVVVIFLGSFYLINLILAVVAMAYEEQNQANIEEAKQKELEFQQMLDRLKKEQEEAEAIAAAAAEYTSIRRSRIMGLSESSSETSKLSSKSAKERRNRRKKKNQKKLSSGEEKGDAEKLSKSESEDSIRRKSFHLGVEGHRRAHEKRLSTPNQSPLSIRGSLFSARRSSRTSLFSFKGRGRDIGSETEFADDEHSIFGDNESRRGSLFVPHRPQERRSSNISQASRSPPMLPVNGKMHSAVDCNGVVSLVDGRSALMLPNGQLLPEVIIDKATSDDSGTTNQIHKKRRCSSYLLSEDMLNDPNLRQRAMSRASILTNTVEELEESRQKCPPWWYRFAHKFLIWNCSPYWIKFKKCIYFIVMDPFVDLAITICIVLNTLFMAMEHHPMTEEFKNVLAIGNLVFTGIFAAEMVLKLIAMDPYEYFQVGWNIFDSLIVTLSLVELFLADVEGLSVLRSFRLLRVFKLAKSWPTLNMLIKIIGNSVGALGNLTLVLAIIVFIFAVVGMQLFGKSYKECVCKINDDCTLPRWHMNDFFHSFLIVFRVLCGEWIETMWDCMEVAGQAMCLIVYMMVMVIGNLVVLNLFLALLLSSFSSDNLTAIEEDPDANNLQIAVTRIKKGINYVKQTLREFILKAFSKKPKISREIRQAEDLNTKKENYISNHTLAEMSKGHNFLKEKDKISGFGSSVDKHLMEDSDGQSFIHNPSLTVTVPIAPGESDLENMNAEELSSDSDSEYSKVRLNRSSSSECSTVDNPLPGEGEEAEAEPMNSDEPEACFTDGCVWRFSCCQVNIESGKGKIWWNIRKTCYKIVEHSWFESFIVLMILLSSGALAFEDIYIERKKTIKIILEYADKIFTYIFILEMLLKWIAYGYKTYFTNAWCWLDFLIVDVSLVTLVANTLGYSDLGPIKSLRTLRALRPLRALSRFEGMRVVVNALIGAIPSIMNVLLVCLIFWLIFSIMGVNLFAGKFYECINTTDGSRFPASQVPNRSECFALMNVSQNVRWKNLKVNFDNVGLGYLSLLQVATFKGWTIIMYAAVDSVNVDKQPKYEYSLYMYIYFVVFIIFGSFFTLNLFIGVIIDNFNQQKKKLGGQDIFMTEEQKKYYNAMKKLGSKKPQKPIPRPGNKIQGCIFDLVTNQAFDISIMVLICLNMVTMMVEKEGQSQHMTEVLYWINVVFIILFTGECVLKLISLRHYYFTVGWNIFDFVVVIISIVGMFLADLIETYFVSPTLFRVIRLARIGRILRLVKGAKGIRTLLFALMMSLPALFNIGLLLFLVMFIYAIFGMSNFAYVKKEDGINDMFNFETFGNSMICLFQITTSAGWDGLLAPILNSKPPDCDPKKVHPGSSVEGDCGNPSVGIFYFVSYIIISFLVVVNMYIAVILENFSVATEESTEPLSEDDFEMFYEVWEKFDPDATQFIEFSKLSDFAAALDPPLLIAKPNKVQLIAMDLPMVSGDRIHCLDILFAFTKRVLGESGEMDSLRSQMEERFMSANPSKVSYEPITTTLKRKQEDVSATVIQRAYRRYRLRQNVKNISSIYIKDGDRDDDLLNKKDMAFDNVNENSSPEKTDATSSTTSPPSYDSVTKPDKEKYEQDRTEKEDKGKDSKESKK
The target of data set [2] is T1, Sodium channel protein type 9 subunit alpha. Nature of the data set: Blockade of human Nav1.7 at 1 uM by voltage ion probe reader based FRET assay.
Target sequence in this assay (Q15858 whole entry, looked up): as the sequence (Q15858 whole entry) above
In data set [3] the test system is Rattus norvegicus. Nature of the data set: Analgesic activity rat spinal nerve ligation Chung model assessed as reversal of mechanical allodynia at 10 mg/kg, po administered 14 days after surgery measured 2 hrs after postdose. It is filed as functional.
Data set [4] concerns the target T1, Sodium channel protein type 9 subunit alpha. Nature of the data set: Blockade of human Nav1.7 by electrophysiology assay.
Target sequence in this assay (Q15858 whole entry): as above
Data set [5] has as its target hERG (KCNH2) (Homo sapiens, UniProt Q12809). Briefly: Displacement of radiolabeled MK-0499 from human ERG at 1 uM. The settings on record: probe radiolabeled MK-0499.
The target of data set [6] is Cytochrome P450 3A4 (Homo sapiens, UniProt P08684). Briefly: Inhibition of CYP3A4. It is filed as ADME.
The target of data set [7] is Cytochrome P450 2C9 (Homo sapiens, UniProt P11712). Nature of the data set: Inhibition of CYP2C9. It is filed as ADME.
Data set [8] concerns the target Cytochrome P450 2D6 (Homo sapiens, UniProt P10635). Nature of the data set: Inhibition of CYP2D6. In kind it is ADME.
A short description of data set [9]: Oral bioavailability in rat at 1 to 2 mg/kg. The settings on record: in vivo. It is filed as ADME, organism-based.
The nature of data set [10]: Clearance in rat plasma at 1 to 2 mg/kg. In kind it is ADME, organism-based. Further details: dose 1-2 mg/kg.
A short description of data set [11]: Half life in rat plasma at 1 to 2 mg/kg. It is filed as ADME, organism-based. Further details: dose 1-2 mg/kg.
Data set [12] can be described thus: Metabolic stability in rat liver S9 microsomes assessed as compound remaining after 1 hr. It is filed as ADME, Microsome. The settings on record: read-out: INH.
The nature of data set [13]: Metabolic stability in dog liver S9 microsomes assessed as compound remaining after 1 hr. It is filed as ADME, Canis lupus familiaris, Microsome. The note with it: read-out: INH.
A short description of data set [14]: Metabolic stability in human liver S9 microsomes assessed as compound remaining after 1 hr. The settings on record: read-out: INH. In kind it is ADME, Microsome.
A short description of data set [15]: Metabolic stability in dog hepatocytes assessed as compound remaining after 2 hrs. The note with it: read-out: INH. It is filed as ADME, cell-based, Canis lupus familiaris, Hepatocyte.
Data set [16] is described as follows: Oral bioavailability in rat at 1 to 3 mg/kg. It is filed as ADME, organism-based. The settings on record: in vivo.
Data set [17] is described as follows: Clearance in rat plasma at 1 to 3 mg/kg. In kind it is ADME, organism-based. Further details: dose 1-3 mg/kg.
Data set [18] can be described thus: Half life in rat plasma at 1 to 3 mg/kg. In kind it is ADME, organism-based. Further details: dose 1-3 mg/kg.
Data set [19] deals with T1, Sodium channel protein type 9 subunit alpha. Nature of the data set: Binding affinity to human Nav1.7.
Target sequence in this assay (Q15858 whole entry): as above

pIC50, pKi: −log10 of the molar value. Values joined by “and” are separate entries in the source; they are usually repeats but may differ in a detail not shown here. Identical values can stand only once.

Sequence of Cytochrome P450 2D6 (P10635 whole entry): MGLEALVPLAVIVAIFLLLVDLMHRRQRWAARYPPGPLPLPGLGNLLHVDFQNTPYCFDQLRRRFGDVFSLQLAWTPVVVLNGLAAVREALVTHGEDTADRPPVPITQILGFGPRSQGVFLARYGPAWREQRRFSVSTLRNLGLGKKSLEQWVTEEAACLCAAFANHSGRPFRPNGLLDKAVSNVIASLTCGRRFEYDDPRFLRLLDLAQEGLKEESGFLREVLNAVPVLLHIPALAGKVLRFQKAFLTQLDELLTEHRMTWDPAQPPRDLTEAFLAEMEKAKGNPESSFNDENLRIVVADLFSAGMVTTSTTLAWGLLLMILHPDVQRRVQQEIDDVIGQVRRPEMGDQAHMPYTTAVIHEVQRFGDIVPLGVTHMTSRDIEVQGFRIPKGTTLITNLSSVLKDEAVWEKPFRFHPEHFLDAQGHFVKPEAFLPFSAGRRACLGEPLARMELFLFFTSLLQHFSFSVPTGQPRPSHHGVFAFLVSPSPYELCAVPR
Sequence of Cytochrome P450 3A4 (P08684 whole entry): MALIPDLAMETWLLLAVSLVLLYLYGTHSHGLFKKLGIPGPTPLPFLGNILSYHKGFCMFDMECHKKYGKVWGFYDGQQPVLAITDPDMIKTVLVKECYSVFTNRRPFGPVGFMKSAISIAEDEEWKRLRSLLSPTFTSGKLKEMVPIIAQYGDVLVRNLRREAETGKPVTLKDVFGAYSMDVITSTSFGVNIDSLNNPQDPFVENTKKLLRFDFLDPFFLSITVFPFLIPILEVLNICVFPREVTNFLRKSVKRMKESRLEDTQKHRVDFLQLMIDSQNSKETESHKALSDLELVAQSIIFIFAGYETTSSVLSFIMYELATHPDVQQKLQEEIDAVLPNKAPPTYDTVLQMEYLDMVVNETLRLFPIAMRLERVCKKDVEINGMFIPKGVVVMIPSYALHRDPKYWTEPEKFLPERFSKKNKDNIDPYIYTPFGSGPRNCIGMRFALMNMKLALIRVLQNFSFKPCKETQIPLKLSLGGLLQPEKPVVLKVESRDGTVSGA
Sequence of hERG (KCNH2) (Q12809 whole entry): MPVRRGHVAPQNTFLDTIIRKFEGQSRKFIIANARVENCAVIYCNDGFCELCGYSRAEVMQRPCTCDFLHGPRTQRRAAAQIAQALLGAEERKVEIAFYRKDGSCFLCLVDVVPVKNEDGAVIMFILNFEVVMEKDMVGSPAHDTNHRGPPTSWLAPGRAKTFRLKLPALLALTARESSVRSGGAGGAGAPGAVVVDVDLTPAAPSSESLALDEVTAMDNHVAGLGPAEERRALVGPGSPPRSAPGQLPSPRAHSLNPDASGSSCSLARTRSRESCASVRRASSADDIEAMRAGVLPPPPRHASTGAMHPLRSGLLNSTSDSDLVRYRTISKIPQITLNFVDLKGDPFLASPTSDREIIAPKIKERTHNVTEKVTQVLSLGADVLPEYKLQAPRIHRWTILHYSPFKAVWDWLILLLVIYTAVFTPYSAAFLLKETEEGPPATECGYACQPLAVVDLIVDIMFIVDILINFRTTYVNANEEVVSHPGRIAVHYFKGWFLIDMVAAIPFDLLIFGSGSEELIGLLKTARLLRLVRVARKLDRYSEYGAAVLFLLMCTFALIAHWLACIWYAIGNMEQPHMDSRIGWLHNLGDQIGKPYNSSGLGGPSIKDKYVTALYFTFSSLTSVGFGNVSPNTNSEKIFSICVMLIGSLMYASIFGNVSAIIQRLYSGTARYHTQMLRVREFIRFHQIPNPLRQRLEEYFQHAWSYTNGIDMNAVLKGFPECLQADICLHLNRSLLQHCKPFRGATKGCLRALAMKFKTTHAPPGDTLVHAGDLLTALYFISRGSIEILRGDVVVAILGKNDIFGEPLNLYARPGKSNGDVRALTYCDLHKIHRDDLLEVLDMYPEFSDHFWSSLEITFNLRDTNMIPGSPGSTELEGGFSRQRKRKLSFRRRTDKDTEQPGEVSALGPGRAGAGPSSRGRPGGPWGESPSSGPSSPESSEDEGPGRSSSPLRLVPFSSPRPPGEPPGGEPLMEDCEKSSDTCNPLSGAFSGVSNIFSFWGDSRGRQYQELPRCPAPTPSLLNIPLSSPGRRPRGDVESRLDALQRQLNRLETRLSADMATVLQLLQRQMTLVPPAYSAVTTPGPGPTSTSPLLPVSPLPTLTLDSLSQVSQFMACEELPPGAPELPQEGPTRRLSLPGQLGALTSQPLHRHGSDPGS
Sequence of Cytochrome P450 2C9 (P11712 whole entry): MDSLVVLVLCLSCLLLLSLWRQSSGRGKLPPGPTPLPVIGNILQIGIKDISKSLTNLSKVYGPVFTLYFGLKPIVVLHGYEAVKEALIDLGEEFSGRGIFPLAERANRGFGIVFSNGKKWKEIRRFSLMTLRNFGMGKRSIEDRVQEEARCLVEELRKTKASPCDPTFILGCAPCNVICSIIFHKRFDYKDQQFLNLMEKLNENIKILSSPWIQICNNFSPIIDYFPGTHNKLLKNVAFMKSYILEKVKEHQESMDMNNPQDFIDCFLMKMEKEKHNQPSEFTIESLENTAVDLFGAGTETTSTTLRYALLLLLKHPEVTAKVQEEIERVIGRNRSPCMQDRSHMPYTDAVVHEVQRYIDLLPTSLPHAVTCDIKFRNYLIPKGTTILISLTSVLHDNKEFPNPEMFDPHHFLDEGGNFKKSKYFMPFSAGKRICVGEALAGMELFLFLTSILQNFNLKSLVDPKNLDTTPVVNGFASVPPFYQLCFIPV

`Cc1nc(-c2cccc(-c3ccccc3OC(F)(F)F)c2)cs1` had a pIC50 in data set [1] of 5.52.
Regarding `FC(F)(F)Oc1ccccc1-c1cccc(-c2csc(-c3cnccn3)n2)c1`, the pIC50 in data set [1] is 5.90.
In data set [2], `Cn1cc(-c2cc(-c3ccccc3OC(F)(F)F)ccc2F)nc1C(N)=O` yielded an inhibition of 15%.
On the same count and under the same terms, the figure for `FC(F)(F)Oc1ccccc1-c1cccc(-c2csc(-c3ccccn3)n2)c1` is 21%.
In turn, `Cc1nc(-c2cccc(-c3ccccc3OC(F)(F)F)c2)co1` had a pIC50 in data set [1] of 5.67.
On the same count and under the same terms, the figure for `NC(=O)Cc1nc(-c2cccc(-c3ccccc3OC(F)(F)F)c2)cs1` is 6.21; for `Cc1sc(C(N)=O)nc1-c1cccc(-c2ccccc2OC(F)(F)F)c1` it is 6.37.
Consider `FC(F)(F)Oc1ccccc1-c1cccc(-c2csc(-c3ncco3)n2)c1`, for which the inhibition in data set [2] is 27%.
`NC(=O)c1nc(-c2cccc(-c3ccccc3OC(F)(F)F)c2)co1` had a pIC50 in data set [1] of 5.63.
As to `CCOC(=O)c1nc(-c2cccc(-c3ccccc3OC(F)(F)F)c2)c(C)s1`, the inhibition in data set [2] was 8%.
In data set [1], `Cn1cc(-c2ccc(F)c(-c3ccccc3OC(F)(F)F)c2)nc1C(N)=O` gave a pIC50 of 6.31.
In the case of `NC(=O)c1nc(-c2ccc(-c3ccccc3OC(F)(F)F)cc2)cs1`, in [2], the inhibition was determined as 6.1%.
Regarding `FC(F)(F)c1ccccc1-c1cccc(-c2cocn2)c1`, the pIC50 in data set [1] was 5.27.
Take `NC(=O)c1nc(-c2cccc(-c3ccccc3OC(F)(F)F)c2)cs1`: the inhibition in vivo at 10 mg/kg in data set [3] was 61%. In data set [1], the IC50 is 230 nM (2×) and 228 nM. The pIC50 in [4] is 7.82; in data set [6] it was 4.74; in data set [7], 4.80; in [8], 4.32. The molecule further displayed an inhibition at 1 µM in data set [5] of 0.5%. In data set [9], the bioavailability was 20%. The same molecule returned a clearance in data set [10] of 52 mL/min/kg. In data set [11], this molecule showed a half-life of 79.8 min. The remaining at 1 h in data set [12] was 68%; in data set [13], 10%; in data set [14], 47%. The remaining at 2 h in [15] was < 5%.
In the case of `FC(F)(F)Oc1ccccc1-c1cccc(-c2c[nH]cn2)c1`, in data set [2], the inhibition amounted to 14%.
Take `NC(=O)c1nc(-c2cccc(-c3ccccc3C(F)(F)F)c2)c[nH]1`: the inhibition in [2] stood at 55%. The pIC50 is 6.57 in data set [4], < 4.40 in data set [6], < 4.40 in data set [7] and < 4.40 in data set [8]. Besides, the inhibition at 1 µM in [5] amounted to 25%. Besides, in [16], the bioavailability worked out at 46%. The molecule also had a clearance in data set [17] of 23 mL/min/kg. Further, in [18], the half-life is 30 min.
`Cn1cc(-c2cccc(-c3ccccc3C(F)(F)F)c2)nc1C(N)=O` showed a pIC50 in data set [1] of 5.90.
Regarding `FC(F)(F)c1ccccc1-c1cccc(-c2c[nH]cn2)c1`, the pIC50 in data set [1] is 5.68; in [4] it was 6.82; in [6], > 7.30; in [7], > 7.30; in [8], > 7.30. Moreover, the inhibition at 1 µM in data set [5] is 75%. This molecule also yielded a bioavailability in [9] of 71%. In data set [10], the clearance amounted to 32 mL/min/kg. In [11], this molecule yielded a half-life of 37.8 min.
In data set [1], `FC(F)(F)Oc1ccccc1-c1cccc(-c2cscn2)c1` had a negative logarithm of the IC50 (pIC50) of 5.67.
Turning to `NC(=O)c1nc(-c2cccc(-c3ccccc3C(F)(F)F)c2)c(Cl)[nH]1`, the pIC50 in data set [1] was 5.56.
In data set [2], `CS(=O)(=O)Nc1nc(-c2cccc(-c3ccccc3OC(F)(F)F)c2)cs1` registered an inhibition of 65%.
Still for that read-out and setting: the figure for `N#CCc1nc(-c2cccc(-c3ccccc3OC(F)(F)F)c2)cs1` is 8%; for `CN(C)C(=O)Nc1nc(-c2cccc(-c3ccccc3OC(F)(F)F)c2)cs1` it is 6.6%.
As to `CN(C)C(=O)c1nc(-c2cccc(-c3ccccc3OC(F)(F)F)c2)cs1`, the pIC50 in [1] is 5.86.
`Nc1nc(-c2cccc(-c3ccccc3OC(F)(F)F)c2)cs1`: the inhibition in data set [2] was determined as 84%.
In turn, `OCc1nc(-c2cccc(-c3ccccc3OC(F)(F)F)c2)cs1` showed a pIC50 in data set [1] of 5.74.
Take `Nc1nc(-c2cccc(-c3ccccc3OC(F)(F)F)c2)co1`: the inhibition in [2] came out at 37%.
In turn, `CC(=O)Nc1nc(-c2cccc(-c3ccccc3OC(F)(F)F)c2)cs1` gave an inhibition in data set [2] of 5%.
As to `NC(=O)c1csc(-c2cccc(-c3ccccc3OC(F)(F)F)c2)n1`, the pIC50 in data set [1] was 6.59; in [4], 7.30; in [6], < 4.30; in data set [7] it was 5.06; in [8], < 4.30. Further, testing at 1 µM in [5] gave an inhibition of 55%. The molecule further showed a bioavailability in [16] of 22%. The molecule further had a clearance in data set [17] of 112 mL/min/kg. In [18], the half-life is 44.4 min.
As to `NC(=O)N/N=C/c1ccc(Oc2ccc(F)cc2)cc1`, the pKi in data set [19] was 6.44.
`FC(F)(F)Oc1ccccc1-c1cccc(-c2cocn2)c1` had a pIC50 in [1] of 5.71.
As to `O=C1NC(=O)/C(=C/c2cccc(-c3ccccc3OC(F)(F)F)c2)S1`, in data set [19], the pKi is 7.70.
In the case of `FC(F)(F)Oc1ccccc1-c1cccc(-c2csc(-c3ncccn3)n2)c1`, in data set [2], the inhibition amounted to 6.3%.
With `FC(F)(F)Oc1ccccc1-c1cccc(-c2csc(-c3ncc[nH]3)n2)c1`, in data set [1], the pIC50 is 6.02.

Source of the values: ChEMBL document CHEMBL1221361, “Substituted biaryl oxazoles, imidazoles, and thiazoles as sodium channel blockers” (Bioorg Med Chem Lett, 2010).
